Counter-ions that a name gives are not always drawn.
Molecular target: T1, human P2X4 receptors (Homo sapiens, UniProt Q99571)
T1 sequence (Q99571 1-388): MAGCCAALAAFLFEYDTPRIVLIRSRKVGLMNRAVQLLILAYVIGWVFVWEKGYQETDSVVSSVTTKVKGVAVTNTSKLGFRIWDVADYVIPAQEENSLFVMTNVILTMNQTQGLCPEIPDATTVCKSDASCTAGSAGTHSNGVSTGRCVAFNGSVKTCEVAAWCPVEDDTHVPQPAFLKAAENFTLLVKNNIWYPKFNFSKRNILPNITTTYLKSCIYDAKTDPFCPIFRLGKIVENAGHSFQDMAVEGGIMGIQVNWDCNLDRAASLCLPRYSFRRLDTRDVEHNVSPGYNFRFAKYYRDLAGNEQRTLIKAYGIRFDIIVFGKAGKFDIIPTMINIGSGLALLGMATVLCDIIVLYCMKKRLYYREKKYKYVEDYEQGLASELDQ
Assay: P2X4 receptor antagonism, intracellular calcium assay (Fura-2 AM) in 1321N1 cells
Assay type: cell-based
Details: 1321N1 cells stably expressing human P2X4 receptors; compound added 15 minutes before ATP; ATP-induced calcium influx; read-out: Inhibition activities (IC50 μM)
Protocol: 1321N1 cells stably expressing human P2X4 receptors were plated in 96-well assay plate and cultured 24 hours at 37° C. in an atmosphere of 5% CO2 for intracellular calcium assay. Fura-2 AM calcium fluorescent indicator was used for the intracellular calcium assay. Fura-2 AM was dissolved in an assay buffer, and the solution was loaded onto cells. The obtained plate was used for fluorescent assay. Test compounds were treated to cells 15 minutes before the addition of ATP, and the response to intracellular calcium influx induced by addition of ATP was monitored by a micro plate reader. The fluorescence ratio of excitations wavelengths of 340 nm and 380 nm was used as the index of intracellular calcium change. The inhibition activities of the test compounds were calculated by comparison with the absence of the test compound (control).
P2X4 receptor antagonism of the compound of the present invention was measured as described below. […]
Test compounds were treated to cells 15 minutes before the addition of ATP, and the response to intracellular calcium influx induced by addition of ATP was monitored by a micro plate reader. The fluorescence ratio of excitations wavelengths of 340 nm and 380 nm was used as the index of intracellular calcium change. The inhibition activities of the test compounds were calculated by comparison with the absence of the test compound (control).

IC50: 0.16 µM
SMILES: O=c1nc(-c2cccc(-c3nnn[nH]3)c2)c2ccc3ccccc3c2[nH]1 [Example 2, 4-[3-(1H-Tetrazol-5-yl)phenyl]-1H-benzo[h]quinazolin-2-one sodium salt]
